In patent US20050084612A1, “Surface coating for microfluidic devices that incorporate a biopolymer resistant moiety” (Caliper Life Sciences, Inc., priority 1999, published 2005) one finds Km data, which are given here for 1 molecule.

In the assay the target is T1, PTP1b (Homo sapiens, UniProt P18031).
T1 sequence (P18031 1-435): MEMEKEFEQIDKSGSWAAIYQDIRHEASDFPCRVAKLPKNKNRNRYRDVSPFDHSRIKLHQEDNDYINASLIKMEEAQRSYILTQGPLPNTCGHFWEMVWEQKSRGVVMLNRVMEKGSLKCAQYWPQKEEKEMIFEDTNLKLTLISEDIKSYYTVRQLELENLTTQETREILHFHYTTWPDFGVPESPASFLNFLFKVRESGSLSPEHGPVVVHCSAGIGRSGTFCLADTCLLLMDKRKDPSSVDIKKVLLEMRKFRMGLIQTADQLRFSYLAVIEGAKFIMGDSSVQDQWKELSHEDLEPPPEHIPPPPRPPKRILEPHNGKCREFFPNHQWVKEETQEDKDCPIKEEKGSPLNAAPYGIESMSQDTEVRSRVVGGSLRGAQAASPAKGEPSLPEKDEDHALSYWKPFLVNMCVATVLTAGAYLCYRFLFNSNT
The experiment in a line: PTP1b/diFMUP Km measurement by substrate titration in microfluidic device. The format is biochemical. The note with it: read-out: Km PTP1b/diFMUP; PEI-2 coated device, no NDSB, 50 mM HEPES+10 mM DTT.

SMILES strings stand for the structures.

Procedure: A 0.1 mg/ml PTP1b solution (12 μl) was placed in well 8. […] The fluorescence signal is detected at the end of the main channel.
The first 5 steps are substrate-only titrations using well 2 and well 3, with buffer flow from well 1. These provide measurements of the substrate background signal. The next 5 steps are the same substrate titration steps, but with enzyme flowing from well 8. The difference between these signals and the substrate-only background signal is product signal. […] The final concentration of the substrate was calculated from the known well concentration and the ratio of currents as programmed in the script. Plotting 1/(product signal per unit time) vs. 1/(substrate concentration) yields the Lineweaver-Burk plot with Km equal to slope divided by the y-intercept.
The final substrate concentration was calculated from Equation 4.

For the molecule `Cc1cc(=O)oc2c(F)c(OP(=O)(O)O)c(F)cc12` [diFMUP, di-6-a-difluoro-4-methylumbelliferyl phosphate], the Km worked out at 3 µM.
